Laboratory results from ChEMBL document CHEMBL4651402, “Screening of ~5500 FDA-approved drugs and clinical candidates for anti-SARS-CoV-2 activity” (2021).

System: SARS-CoV-2
Assay: microbe, parasite or virus in culture
Conditions: Severe acute respiratory syndrome coronavirus 2, Vero C1008, 48 h

Cc1ccsc1C(=CCCN1CCC[C@@H](C(=O)O)C1)c1sccc1C [TIAGABINE]
IC50: > 20 µM | IC50 (read-out: pIC50 (converted)): > 20 µM

Cc1csc(Cl)c1NC1=NCCN1 [TIAMENIDINE]
IC50: > 20 µM | IC50 (read-out: pIC50 (converted)): > 20 µM

CCN(CC)CCNC(=O)c1cc(S(C)(=O)=O)ccc1OC [TIAPRIDE]
IC50: > 20 µM | IC50 (read-out: pIC50 (converted)): > 20 µM

CC(C(=O)O)c1ccc(C(=O)c2ccccc2)s1 (configuration not stated) [TIAPROFENIC ACID]
IC50: > 20 µM | IC50 (read-out: pIC50 (converted)): > 20 µM

O=C(Cn1c(=O)sc2ccc(Cl)cc21)N1CCN(CCO)CC1 [TIARAMIDE]
IC50: > 20 µM | IC50 (read-out: pIC50 (converted)): > 20 µM

CCOc1cc2cc(C(=O)O)sc2cc1OCC [TIBENELAST]
IC50: > 20 µM | IC50 (read-out: pIC50 (converted)): > 20 µM

CCCSc1nc(N[C@@H]2C[C@H]2c2ccc(F)c(F)c2)c2nnn([C@@H]3C[C@H](OCCO)[C@@H](O)[C@H]3O)c2n1 [TICAGRELOR]
IC50: > 20 µM | IC50 (read-out: pIC50 (converted)): > 20 µM

COc1cc(N)c(Cl)cc1C(=O)N[C@@H]1CCNC[C@@H]1OC [TICALOPRIDE]
IC50: > 20 µM | IC50 (read-out: pIC50 (converted)): > 20 µM

O=c1[nH]sc2cc(Cl)ccc12 [TICLATONE]
IC50: > 20 µM | IC50 (read-out: pIC50 (converted)): > 20 µM

Clc1ccccc1CN1CCc2sccc2C1 [TICLOPIDINE]
IC50: > 20 µM | IC50 (read-out: pIC50 (converted)): > 20 µM

O=c1sn(-c2cccc3ccccc23)c(=O)n1Cc1ccccc1 [TIDEGLUSIB]
IC50: > 20 µM | IC50 (read-out: pIC50 (converted)): > 20 µM

CN(C)c1cc(NC(=O)CNC(C)(C)C)c(O)c2c1C[C@H]1C[C@H]3[C@H](N(C)C)C(O)=C(C(N)=O)C(=O)[C@@]3(O)C(O)=C1C2=O [TIGECYCLINE]
IC50: > 20 µM | IC50 (read-out: pIC50 (converted)): > 20 µM

CNC(=N)NCCC[C@H](N)C(=O)O [TILARGININE]
IC50: > 20 µM | IC50 (read-out: pIC50 (converted)): > 20 µM

Cc1nc(C2CCCCC2)c(-c2ccc(S(N)(=O)=O)c(F)c2)o1 [TILMACOXIB]
IC50: > 20 µM | IC50 (read-out: pIC50 (converted)): > 20 µM

O=C(O)Cc1sc2nc3ccccc3n2c1-c1ccc(Cl)cc1 [TILOMISOLE]
IC50: > 20 µM | IC50 (read-out: pIC50 (converted)): > 20 µM

CCN(CC)CCOc1ccc2c(c1)C(=O)c1cc(OCCN(CC)CC)ccc1-2 [TILORONE]
IC50: > 20 µM | IC50 (read-out: pIC50 (converted)): > 20 µM

Cc1c(Cc2ccc3ccccc3n2)c2cc(F)ccc2n1CC(=O)O [TIMAPIPRANT]
IC50: > 20 µM | IC50 (read-out: pIC50 (converted)): > 20 µM

COc1cc(C(=O)C(=O)N(C)[C@@H](Cc2ccc(Cl)cc2)C(=O)N(Cc2ccccc2)C(CCc2ccncc2)CCc2ccncc2)cc(OC)c1OC [TIMCODAR]
IC50: > 20 µM | IC50 (read-out: pIC50 (converted)): > 20 µM

Cc1cc(/N=C(\Nc2nccs2)NC2CCCCC2)c2ccccc2n1 [TIMEGADINE]
IC50: > 20 µM | IC50 (read-out: pIC50 (converted)): > 20 µM

O=C(CCCN1CCC(n2c(=S)[nH]c3ccccc32)CC1)c1ccc(F)cc1 [TIMIPERONE]
IC50: > 20 µM | IC50 (read-out: pIC50 (converted)): > 20 µM

CC(C)(C)NC[C@H](O)COc1nsnc1N1CCOCC1 [TIMOLOL]
IC50: > 20 µM | IC50 (read-out: pIC50 (converted)): > 20 µM

c1ccc2c(SC3=NCCN3)c[nH]c2c1 [TINAZOLINE]
IC50: > 20 µM | IC50 (read-out: pIC50 (converted)): > 20 µM

CCS(=O)(=O)CCn1c([N+](=O)[O-])cnc1C [TINIDAZOLE]
IC50: > 20 µM | IC50 (read-out: pIC50 (converted)): > 20 µM

CCOC(=O)c1c(N)sc2c1CCN(Cc1ccccc1)C2 [TINORIDINE]
IC50: > 20 µM | IC50 (read-out: pIC50 (converted)): > 20 µM

Clc1ccc(C(Cn2ccnc2)OCc2ccsc2Cl)c(Cl)c1 (configuration not stated) [TIOCONAZOLE]
IC50: > 20 µM | IC50 (read-out: pIC50 (converted)): > 20 µM

CC(S)C(=O)NCC(=O)O (configuration not stated) [TIOPRONIN]
IC50: > 20 µM | IC50 (read-out: pIC50 (converted)): > 20 µM

C/N=C(/NC#N)NCCSCc1csc(NC(=N)N)n1 [TIOTIDINE]
IC50: > 20 µM | IC50 (read-out: pIC50 (converted)): > 20 µM

C[N+]1(C)[C@@H]2C[C@@H](OC(=O)C(O)(c3cccs3)c3cccs3)C[C@H]1[C@@H]1O[C@@H]12 [TIOTROPIUM]
IC50: > 20 µM | IC50 (read-out: pIC50 (converted)): > 20 µM

CCOC(=O)C(=O)Nc1nc(-c2ccc(OC)cc2)cs1 [TIOXAMAST]
IC50: > 20 µM | IC50 (read-out: pIC50 (converted)): > 20 µM

O=c1oc2cc(O)ccc2s1 [TIOXOLONE]
IC50: > 20 µM | IC50 (read-out: pIC50 (converted)): > 20 µM

Cc1cnc2c(c1)CCCC2C(N)=S (configuration not stated) [TIQUINAMIDE]
IC50: > 20 µM | IC50 (read-out: pIC50 (converted)): > 20 µM

CCOC(=O)Nc1ccc2c(c1)N(C(=O)CN(C)C)c1ccccc1CC2 [TIRACIZINE]
IC50: > 20 µM | IC50 (read-out: pIC50 (converted)): > 20 µM

O=C(Cc1ccc(-c2ccc(OCCN3CCOCC3)cc2)cn1)NCc1ccccc1 [TIRBANIBULIN]
IC50: > 20 µM | IC50 (read-out: pIC50 (converted)): > 20 µM

COc1cc2nccc(Oc3ccc(NC(=O)Nc4cc(C)on4)c(Cl)c3)c2cc1OC [TIVOZANIB]
IC50: > 20 µM | IC50 (read-out: pIC50 (converted)): > 20 µM

COc1ccc2c(c1)C=C1Cn3c-2c(C2CCCCC2)c2ccc(cc23)C(=O)NS(=O)(=O)N(C)CCOCCN(C)C1=O [TMC-647055]
IC50: > 20 µM | IC50 (read-out: pIC50 (converted)): > 20 µM

Cc1cccc(C)c1NC(=O)C(C)N (configuration not stated) [TOCAINIDE]
IC50: > 20 µM | IC50 (read-out: pIC50 (converted)): > 20 µM

CCOC(=O)NNc1nncc2ccccc12 [TODRALAZINE]
IC50: > 20 µM | IC50 (read-out: pIC50 (converted)): > 20 µM

C[C@@H]1CCN(C(=O)CC#N)C[C@@H]1N(C)c1ncnc2[nH]ccc12 [TOFACITINIB]
IC50: > 20 µM | IC50 (read-out: pIC50 (converted)): > 20 µM

CNCCOC(c1ccccc1)c1ccccc1C (configuration not stated) [TOFENACIN]
IC50: > 20 µM | IC50 (read-out: pIC50 (converted)): > 20 µM

Cc1ccccc1OCC(O)CNCCOc1ccc(C(N)=O)cc1 (configuration not stated) [TOLAMOLOL]
IC50: > 20 µM | IC50 (read-out: pIC50 (converted)): > 20 µM

Cc1ccc(S(=O)(=O)NC(=O)NN2CCCCCC2)cc1 [TOLAZAMIDE]
IC50: > 20 µM | IC50 (read-out: pIC50 (converted)): > 20 µM

c1ccc(CC2=NCCN2)cc1 [TOLAZOLINE]
IC50: > 20 µM | IC50 (read-out: pIC50 (converted)): > 20 µM

CCCCNC(=O)NS(=O)(=O)c1ccc(C)cc1 [TOLBUTAMIDE]
IC50: > 20 µM | IC50 (read-out: pIC50 (converted)): > 20 µM

Cc1ccc(C(=O)c2cc(O)c(O)c([N+](=O)[O-])c2)cc1 [TOLCAPONE]
IC50: > 20 µM | IC50 (read-out: pIC50 (converted)): > 20 µM

Cc1cccc(N(C)C(=S)Oc2ccc3c(c2)C2CCC3C2)c1 (configuration not stated) [TOLCICLATE]
IC50: > 20 µM | IC50 (read-out: pIC50 (converted)): > 20 µM

Cc1c(Cl)cccc1Nc1ccccc1C(=O)O [TOLFENAMIC ACID]
IC50: > 20 µM | IC50 (read-out: pIC50 (converted)): > 20 µM

Cc1cccc(Oc2cnc(=O)[nH]c2)c1 [TOLIMIDONE]
IC50: > 20 µM | IC50 (read-out: pIC50 (converted)): > 20 µM

Cc1cccc(OCC(O)CNC(C)C)c1 (configuration not stated) [TOLIPROLOL]
IC50: > 20 µM | IC50 (read-out: pIC50 (converted)): > 20 µM

Cc1ccc(C(=O)c2ccc(CC(=O)O)n2C)cc1 [TOLMETIN]
IC50: > 20 µM | IC50 (read-out: pIC50 (converted)): > 20 µM

Cc1cccc(N(C)C(=S)Oc2ccc3ccccc3c2)c1 [TOLNAFTATE]
IC50: > 20 µM | IC50 (read-out: pIC50 (converted)): > 20 µM

Cc1ccc(NC2=NCCN2)c(Cl)c1 [TOLONIDINE]
IC50: > 20 µM | IC50 (read-out: pIC50 (converted)): > 20 µM

Cc1cccc(N2CC(CO)OC2=O)c1 (configuration not stated) [TOLOXATONE]
IC50: > 20 µM | IC50 (read-out: pIC50 (converted)): > 20 µM

Cc1ccc(O)c([C@H](CCN(C(C)C)C(C)C)c2ccccc2)c1 [TOLTERODINE]
IC50: > 20 µM | IC50 (read-out: pIC50 (converted)): > 20 µM

Cc1cc(-n2c(=O)[nH]c(=O)n(C)c2=O)ccc1Oc1ccc(SC(F)(F)F)cc1 [TOLTRAZURIL]
IC50: > 20 µM | IC50 (read-out: pIC50 (converted)): > 20 µM

Cc1ccccc1C(=O)Nc1ccc(C(=O)N2CCCC(O)c3cc(Cl)ccc32)c(C)c1 (configuration not stated) [TOLVAPTAN]
IC50: > 20 µM | IC50 (read-out: pIC50 (converted)): > 20 µM

C[C@H]1CC[C@]2(NC1)O[C@H]1C[C@H]3[C@@H]4CC[C@H]5C[C@@H](O)CC[C@]5(C)[C@H]4CC[C@]3(C)[C@H]1[C@@H]2C [TOMATIDINE]
IC50: > 20 µM | IC50 (read-out: pIC50 (converted)): > 20 µM
